For series [1], the system named is spontaneously diabetic rats (ZDF-Lepr^fa/CrlCrlj). The experiment in a line: Blood glucose lowering activity test (Test Example 6). Format: in vivo, rat. As to conditions: for Area under blood glucose curve: 0 to 6 hours after oral administration, fasting, Form I crystal 10 mg/kg, Compound II 8.3 mg/kg (equivalent as free form), average of five. As for the experimental part: Male, 9-week-old, spontaneously diabetic rats (ZDF-Lepr^fa/CrlCrlj) were used.
A crystal of the compound of the present invention in the form of the Form I crystal at 10 mg/kg or the free form thereof in the form of Compound II at 8.3 mg/kg (calculated based on the free form, corresponding to the equivalent of 10 mg/kg of the Form I crystal) was respectively suspended in a 20% aqueous HP-β-cyclodextrin solution (hereinafter referred to as “vehicle”) and orally administered under fasting conditions.
Blood glucose levels were measured in accordance with ordinary methods before administration of the compounds (at 0 hour) and at 0.5, 1, 2, 4 and 6 hours after administration. Namely, the tips of the rat tails (about 1 mm) were severed and blood collected with hematocrit tubes subjected to anticoagulation treatment with heparin were centrifuged followed by measuring the resulting plasma with the Glucoroder F (A&T Corporation). The areas under blood glucose curves from 0 to 6 hours after administration were calculated using the resulting blood glucose values.
The results of a blood glucose lowering activity test on each group administered with the Form I crystal, Compound II or vehicle only were as shown in Table 8.
Furthermore, the values shown in Table 8 are all the average values of test result values obtained using five spontaneously diabetic rats (ZDF-Lepr^fa/CrlCrlj).

Series [2] in a line: Solubility test (Test Example 4). In kind it is physicochemical. The settings on record: 4 mg in 2 mL; for solubility at 30 min: 37 °C, thermodynamic from solid, read-out: Concentration (solubility); for Concentration (solubility): 37° C., 30 minutes. As for the experimental part:
The Form I crystal (4 mg), the Form II crystal (4 mg) and Compound II (4 mg) were respectively dissolved in 2 mL of water, Japanese Pharmacopoeia Elution Test Solution 1 (JP1), Japanese Pharmacopoeia Elution Test Solution 2 (JP2), Fasted State Simulated Intestinal Fluid (FaSSIF) and Fed State Simulated Intestinal Fluid (FeSSIF). After stirring vigorously for 30 seconds every 5 minutes in a constant temperature water bath at 37° C., a portion of the supernatant was sampled 30 minutes later and filtered with a syringe filter. The filtrate was suitably diluted for use as the sample solution.
The sample solution was measured using HPLC under the following conditions.
HPLC system: Waters Alliance
Column: Waters, XBridge C18 3.5 μm
Column temperature: 40° C.
Solvent A: 5 mM aqueous ammonium hydrogencarbonate solution
The gradient program is as indicated below.

The nature of series [3]: Evaluation of in vivo absorption.
Series [4] in a line: Hygroscopicity test (Test Example 3). In kind it is physicochemical. The settings on record: 25° C., 10 to 90% RH. As for the experimental part:
The sample was weighed in a glass sample cup, and weight was measured under the conditions indicated below.
Measuring instrument: SGA-100 (VTI Corp.)
Measuring temperature: 25° C.
Minimum exposure time: 15 min
Maximum exposure time: 120 min
Step transition condition: within 0.03 wt %
The appearance of the sample was observed following completion of measurement.

Setting [5] is: Fed State Simulated Intestinal Fluid (FeSSIF).
[6] abbreviates: Japanese Pharmacopoeia Elution Test Solution 2 (JP2).
[7] abbreviates: Fasted State Simulated Intestinal Fluid (FaSSIF).
Where [8] appears, read: Japanese Pharmacopoeia Elution Test Solution 1 (JP1).

≈ marks a conversion by molar mass, not a printed value. Read-outs that look alike come from different tables or passages of the source. Where only a bound is given, the exact number is not on record here.

For `C[C@H]1CN=C(c2ccc(-c3cc(Oc4cnc(S(C)(=O)=O)cn4)cc(O[C@@H](C)CO)c3)[nH]2)O1` [Compound II, (2S)-2-(3-{5-[(5S)-5-Methyl-4,5-dihydro-1,3-oxazol-2-yl]-1H-pyrrol-2-yl}-5-{[5-(methylsulfonyl)pyrazin-2-yl]oxy}phenoxy)propan-1-ol, reference compound], the “Area under blood glucose curve” value in series [1] came out at 661.8 ± 26.9 mg/dl × hr. The solubility at 30 min in series [2] (Fasted State Simulated Intestinal Fluid (FaSSIF), fassif, Fasted State Simulated Intestinal Fluid (FaSSIF)) is 12 µg/mL (≈ 25.4 µM); in series [2] (Japanese Pharmacopoeia Elution Test Solution 1 (JP1), pH 1.2, simulated gastric fluid, Japanese Pharmacopoeia Elution Test Solution 1 (JP1)), more than 1500 µg/mL. Moreover, the figures for the “Concentration (solubility)” value in series [2] (setting [5]), in series [2] (setting [6]) and in series [2] (Water) were 222 µg/mL, 5.87 µg/mL and 5.59 µg/mL, respectively.
Regarding `C[C@H]1CN=C(c2ccc(-c3cc(Oc4cnc(S(C)(=O)=O)cn4)cc(O[C@@H](C)CO)c3)[nH]2)O1` [Form I crystal, (2S)-2-(3-{5-[(5S)-5-Methyl-4,5-dihydro-1,3-oxazol-2-yl]-1H-pyrrol-2-yl}-5-{[5-(methylsulfonyl)pyrazin-2-yl]oxy}phenoxy)propan-1-ol monomethanesulfonate], the “Blood concentrations in comparison with Compound II” value in series [3] is “high blood concentrations in comparison with Compound II”. The “Area under blood glucose curve” value in series [1] was determined as 529.0 ± 24.5 mg/dl × hr. The “Blood glucose lowering activity compared with Compound II” value in series [1] (oral, 10 mg/kg Form I crystal vs 8.3 mg/kg Compound II) is “superior to that of the free form”. For the same molecule, the “Concentration (solubility)” value in series [2] (setting [7]) was 20.4 µg/mL; in series [2] (setting [5]), 1145 µg/mL; in series [2] (setting [8]), more than 1500 µg/mL; in series [2] (setting [6]), 11.8 µg/mL; in series [2] (Water) it was more than 1500 µg/mL. Moreover, in series [4], the “Hygroscopicity (moisture sorption-desorption behavior)” value is reported as “did not demonstrate hygroscopicity”.
Consider `C[C@H]1CN=C(c2ccc(-c3cc(Oc4cnc(S(C)(=O)=O)cn4)cc(O[C@@H](C)CO)c3)[nH]2)O1` [Form II crystal, (2S)-2-(3-{5-[(5S)-5-Methyl-4,5-dihydro-1,3-oxazol-2-yl]-1H-pyrrol-2-yl}-5-{[5-(methylsulfonyl)pyrazin-2-yl]oxy}phenoxy)propan-1-ol monomethanesulfonate], for which, in series [3], the “Blood concentrations in comparison with Compound II” value is on record as “high blood concentrations in comparison with Compound II”. Moreover, the “Concentration (solubility)” value is 20.5 µg/mL in series [2] (setting [7]); 1381 µg/mL in series [2] (setting [5]); more than 1500 µg/mL in series [2] (setting [8]); 14.1 µg/mL in series [2] (setting [6]); more than 1500 µg/mL in series [2] (Water). Moreover, the “Hygroscopicity (moisture sorption-desorption behavior)” value in series [4] is “did not demonstrate hygroscopicity”.
